{
  "source": "patent US20260265199A1",
  "about": "“CRYSTALLINE FORMS OF (R)-2-AMINO-5-(4-(2-(3,5-DIFLUOROPHENYL)-2-HYDROXYACETAMIDO)-2-METHYLPHENYL)-N-ISOPROPYLNICOTINAMIDE AND METHODS FOR USING THE SAME” (HIBERCELL, INC., priority 2023, published 2026)",
  "experiment": "Phase 1a study: pharmacokinetics after oral BID dosing in subjects with advanced solid tumors",
  "type": "in vivo, human",
  "conditions": "for Tmax / Cmax / half-life / AUC(0-t) / Vd/F / AUC(0-inf) / AUC: human, in vivo; for Vd/F: read-out: Vz/F; for AUC: read-out: AUC0-τ",
  "procedure": "This example describes a first in human, Phase 1a, multi-center, open-label study to establish the maximum tolerated dose (MTD) and evaluate the safety and tolerability of oral dosing of Form A of the hemi-fumarate salt of the compound of formula (I) (Example 11) in a dose-escalating fashion. Form A of the hemi-fumarate salt was orally administered BID every day with food or within 30 minutes of completing a meal, starting at 25 mg, with doses escalating to 50, 100, 200, 400, 600, and 900 mg BID as safety allows for each 3-week treatment cycle.\nUp to 36 qualified subjects at 3 to 5 US sites, who have specific tumor types of renal cell carcinoma (RCC), gastric cancer (GC), metastatic breast cancer (MBC), small cell lung cancer (SCLC), and other solid tumors (e.g., non-small cell lung cancer, colorectal cancer, carcinoma of unknown primary) with the exception of rapidly progressing neoplasms (e.g., pancreatic cancer, glioblastoma, hepatocellular carcinoma) received Form A of the hemi-fumarate salt. Every effort was made to ensure approximately 50% of all subjects enrolled were subjects with RCC and GC. The starting dose level was 25 mg twice daily (BID), escalating to 50, 100, and 200 mg BID as safety allows, following the Bayesian Optimal Interval (BOIN) design. The safety monitoring committee (SMC) evaluated the dose-limiting toxicities (DLTs) and cumulative safety and PK data at the end of each cohort. Based on the SMC recommendations after a comprehensive review of PK and safety data for 200 mg BID dose, higher dose levels were evaluated, starting with 400 mg BID. The dose escalated to 600 mg and then 900 mg following the BOIN design starting with 1 subject at each escalated dose, until the MTD was reached or the sponsor or SMC declares the dose most appropriate for clinical development. This Phase 1a will be expanded into a Phase 1b/2a study through a protocol amendment and will then assess the dose and tumor type(s) selected in Phase 1a as the most appropriate for further clinical development. Subjects were dosed until unacceptable toxicity, disease progression per immune-related Response Evaluation Criteria in Solid Tumors (iRECIST), subject withdrawal, any other administrative reasons, or after 2 years of treatment, whichever occurs first. Efficacy was assessed via Response Evaluation Criteria in Solid Tumors 1.1 (RECIST 1.1); computed tomography (CT) scans were conducted every 6 weeks. Safety, including occurrence of dose-limiting toxicities (DLTs), pharmacokinetics (PK), and biomarker parameters were also assessed.\nForm A of the hemi-fumarate salt was orally administered BID with food or within 30 minutes of completing a meal, starting at 25 mg, with doses escalating to 50, 100, 200, 400, 600 and 900 mg BID as safety allowed. Up to 24 subjects were enrolled to ensure 12 subjects completed the study at the estimated MTD of Form A of the hemi-fumarate salt. Dosing occurred in 3-week cycles. Subjects spent Cycle 1/Day 1 (C1D1) in the clinic followed by an overnight stay for safety monitoring and PK sampling. Subjects were hospitalized for administration of first 3 doses: CID1 am and pm doses, and Cycle 1/Day 2 (C1D2) am dose; on Days 8, 15, and 21 the am dose was taken in the clinic after the planned PK samples. All other doses were self administered at home.\nResults of Cohorts 1 to 6 the study are detailed in Tables 47-50 below.",
  "key": {"[1]": {"conditions": "po, 300 mg, 300 mg single oral dose, Cycle 1 Day 1, geometric mean, N = 4"}, "[2]": {"conditions": "po, 300 mg, 300 mg twice daily oral, Cycle 1 Day 21, point estimate, N = 1"}, "[3]": {"conditions": "po, 400 mg, 400 mg single oral dose, Cycle 1 Day 1, geometric mean, N = 3"}, "[4]": {"conditions": "po, 600 mg, 600 mg single oral dose, Cycle 1 Day 1, point estimate, N = 1"}, "[5]": {"conditions": "po, 600 mg, 600 mg twice daily oral, Cycle 1 Day 21, point estimate, N = 1"}},
  "note": "Structures can show the parent of a compound that is named as a salt. Where two headings read alike, the source gives them in different places.",
  "data": [
    {"compound": "Cc1cc(NC(=O)[C@H](O)c2cc(F)cc(F)c2)ccc1-c1cnc(N)c(C(=O)NC(C)C)c1", "note": "[Form A of the hemi-fumarate salt, (R)-2-amino-5-(4-(2-(3,5-difluorophenyl)-2-hydroxyacetamido)-2-methylphenyl)-N-isopropylnicotinamide]", "values": [
      {"measurement": "Tmax", "setting": "po, 200 mg, 200 mg twice daily oral, Cycle 1 Day 21, median, N = 4", "value": 5, "unit": "h"},
      {"measurement": "Cmax", "setting": "[1]", "value": 1140, "unit": "ng/mL"},
      {"measurement": "half-life", "setting": "po, 300 mg, 300 mg single oral dose, Cycle 1 Day 1, geometric mean, N = 4, interpret with caution, terminal elimination phase not well captured, read-out: t1/2 (converted)", "value": 413, "unit": "min"},
      {"measurement": "AUC(0-t)", "setting": "po, 300 mg, 300 mg single oral dose, Cycle 1 Day 1, geometric mean, N = 4, read-out: AUC0-12", "value": 8610, "unit": "ng·h/mL"},
      {"measurement": "AUC(0-t)", "setting": "po, 300 mg, 300 mg single oral dose, Cycle 1 Day 1, geometric mean, N = 4, read-out: AUC0-last", "value": 8610, "unit": "ng·h/mL"},
      {"measurement": "Vd/F", "setting": "[1]", "value": 619, "unit": "L"},
      {"measurement": "Tmax", "setting": "po, 300 mg, 300 mg single oral dose, Cycle 1 Day 1, median, N = 4", "value": 7, "unit": "h"},
      {"measurement": "Cmax", "setting": "[2]", "value": 3030, "unit": "ng/mL"},
      {"measurement": "Tmax", "setting": "[2]", "value": 8, "unit": "h"},
      {"measurement": "AUC(0-t)", "setting": "po, 300 mg, 300 mg twice daily oral, Cycle 1 Day 21, point estimate, N = 1, read-out: AUC0-last", "value": 28400, "unit": "ng·h/mL"},
      {"measurement": "Cmax", "setting": "[3]", "value": 649, "unit": "ng/mL"},
      {"measurement": "half-life", "setting": "po, 400 mg, 400 mg single oral dose, Cycle 1 Day 1, geometric mean, N = 3, interpret with caution, terminal elimination phase not well captured, read-out: t1/2 (converted)", "value": 407, "unit": "min"},
      {"measurement": "AUC(0-t)", "setting": "po, 400 mg, 400 mg single oral dose, Cycle 1 Day 1, geometric mean, N = 3, read-out: AUC0-12", "value": 3830, "unit": "ng·h/mL"},
      {"measurement": "AUC(0-t)", "setting": "po, 400 mg, 400 mg single oral dose, Cycle 1 Day 1, geometric mean, N = 3, read-out: AUC0-last", "value": 3830, "unit": "ng·h/mL"},
      {"measurement": "Vd/F", "setting": "[3]", "value": 240, "unit": "L"},
      {"measurement": "Tmax", "setting": "po, 400 mg, 400 mg single oral dose, Cycle 1 Day 1, median, N = 3", "value": 2, "unit": "h"},
      {"measurement": "half-life", "setting": "po, 400 mg, 400 mg twice daily oral, Cycle 1 Day 21, N = 2, interpret with caution, terminal elimination phase not well captured, read-out: t1/2 (converted)", "value": 648, "unit": "min"},
      {"measurement": "Vd/F", "setting": "po, 400 mg, 400 mg twice daily oral, Cycle 1 Day 21, N = 2", "value": 122, "unit": "L"},
      {"measurement": "Cmax", "setting": "po, 400 mg, 400 mg twice daily oral, Cycle 1 Day 21, geometric mean, N = 2", "value": 3680, "unit": "ng/mL"},
      {"measurement": "AUC(0-t)", "setting": "po, 400 mg, 400 mg twice daily oral, Cycle 1 Day 21, geometric mean, N = 2, read-out: AUC0-last", "value": 30800, "unit": "ng·h/mL"},
      {"measurement": "half-life", "setting": "po, 400 mg, 400 mg twice daily oral, Cycle 1 Day 21, geometric mean, N = 2, read-out: t1/2, eff (converted)", "value": 2310, "unit": "min"},
      {"measurement": "Tmax", "setting": "po, 400 mg, 400 mg twice daily oral, Cycle 1 Day 21, median, N = 2", "value": 2.5, "unit": "h"},
      {"measurement": "Cmax", "setting": "[4]", "value": 1460, "unit": "ng/mL"},
      {"measurement": "Tmax", "setting": "[4]", "value": 2, "unit": "h"},
      {"measurement": "AUC(0-t)", "setting": "po, 600 mg, 600 mg single oral dose, Cycle 1 Day 1, point estimate, N = 1, read-out: AUC0-12", "value": 11600, "unit": "ng·h/mL"},
      {"measurement": "AUC(0-t)", "setting": "po, 600 mg, 600 mg single oral dose, Cycle 1 Day 1, point estimate, N = 1, read-out: AUC0-last", "value": 11600, "unit": "ng·h/mL"},
      {"measurement": "Cmax", "setting": "[5]", "value": 5990, "unit": "ng/mL"},
      {"measurement": "Tmax", "setting": "[5]", "value": 12, "unit": "h"},
      {"measurement": "AUC(0-t)", "setting": "po, 600 mg, 600 mg twice daily oral, Cycle 1 Day 21, point estimate, N = 1, read-out: AUC0-last", "value": 60800, "unit": "ng·h/mL"},
      {"measurement": "half-life", "setting": "po, 600 mg, 600 mg twice daily oral, Cycle 1 Day 21, point estimate, N = 1, read-out: t1/2, eff (converted)", "value": 2350, "unit": "min"},
      {"measurement": "AUC(0-inf)", "setting": "25 mg single oral dose, Cycle 1 Day 1, geometric mean, N = 3", "value": 2200, "unit": "ng·h/mL"},
      {"measurement": "AUC", "setting": "25 mg twice daily oral, Cycle 1 Day 21, geometric mean, N = 3", "value": 4110, "unit": "ng·h/mL"},
      {"measurement": "AUC(0-inf)", "setting": "50 mg single oral dose, Cycle 1 Day 1, geometric mean, N = 3", "value": 5650, "unit": "ng·h/mL"},
      {"measurement": "AUC", "setting": "50 mg twice daily oral, Cycle 1 Day 21, geometric mean, N = 3", "value": 9070, "unit": "ng·h/mL"},
      {"measurement": "AUC", "setting": "100 mg twice daily oral, Cycle 1 Day 21, geometric mean, N = 3", "value": 11700, "unit": "ng·h/mL"},
      {"measurement": "AUC(0-inf)", "setting": "200 mg single oral dose, Cycle 1 Day 1, geometric mean, N = 5", "value": 18000, "unit": "ng·h/mL"},
      {"measurement": "AUC", "setting": "200 mg twice daily oral, Cycle 1 Day 21, geometric mean, N = 4", "value": 27200, "unit": "ng·h/mL"},
      {"measurement": "AUC(0-inf)", "setting": "300 mg single oral dose, Cycle 1 Day 1, geometric mean, N = 4", "value": 4810, "unit": "ng·h/mL"},
      {"measurement": "AUC", "setting": "300 mg twice daily oral, Cycle 1 Day 21, point estimate, N = 1", "value": 28400, "unit": "ng·h/mL"},
      {"measurement": "half-life", "setting": "300 mg twice daily oral, Cycle 1 Day 21, point estimate, N = 1, read-out: t1/2, eff (converted)", "value": 1160, "unit": "min"},
      {"measurement": "AUC(0-inf)", "setting": "400 mg single oral dose, Cycle 1 Day 1, geometric mean, N = 3", "value": 16300, "unit": "ng·h/mL"},
      {"measurement": "AUC", "setting": "400 mg twice daily oral, Cycle 1 Day 21, geometric mean, N = 2", "value": 51200, "unit": "ng·h/mL"},
      {"measurement": "AUC", "setting": "600 mg twice daily oral, Cycle 1 Day 21, point estimate, N = 1", "value": 60800, "unit": "ng·h/mL"},
      {"measurement": "Exposure versus dose", "setting": "oral BID with food, 25 mg to 600 mg dose range, subjects with advanced solid tumors", "value": "increased roughly proportional to the increase in dose"},
      {"measurement": "Time to steady-state", "setting": "oral BID, based on similar trough concentrations on Cycle 1, Days 8, 15 and 21", "value": "achieved by Cycle 1, Day 8"}
    ]}
  ]
}
